Results taken from patent publication US20080312187A1, “PHOSPHOINOSITIDE MODULATION FOR THE TREATMENT OF ALZHEIMER'S DISEASE” (priority 2005, published 2008).
Entries after “also recorded” stand apart in the source; their conditions may differ. Read-outs that look alike come from different tables or passages of the source.

Columns and labels:
[1] = system: Aβ42; test: Aβ42 in cultured hippocampal primary neurons from Tg2576 mice; format: cell-based, mouse; conditions: for Aβ42 in cultured hippocampal primary neurons: primary neurons from Tg2576 mice
Description: FIG. 15A-B. (A) Rk1 and (20S)Rg3 decrease Aβ42 in cultured hippocampal primary neurons from Ad-model Tg2576 mice.
(§1) Of note, γ-secretase inhibitors and non-steroidal anti-inflammatory drugs were not found to reverse these CCE defects (FIG. 17A-B). Ginsenosides such as (20S)Rg3 may therefore, unlike other Aβ42-lowering agents, also ameliorate the defect in CCE associated with Aβ. The following data support the role of PLCγ1 as a common upstream target modulating CCE as well as Aβ42 levels.

[2] = system: Aβ42; test: Aβ42 ELISA in Hela-APPsw cells transfected with siRNA against PLC isoforms and treated with Rg3; format: cell-based, human
Experimental: FIG. 18A-B. Role of PLC γ1 in Aβ42-lowering activity of ginsenosides. (A) Hela-APPsw cells transfected with specific siRNA against PLCβ3, PLC γ1 and PLC γ2 were treated with either DMSO or 15 μM Rg3 for 6 hr. The down regulation of PLCβ3, PLCγ1 and PLCγ2 was confirmed by Western blot using isoform-specific antibodies. (B) Effects of RNAi-mediated downregulation of PLC isoforms in the presence of Rg3 treatment. Aβ42 levels were measured in the conditioned media by ELISA. Aβ values are shown as percentage of control siRNA and are the mean ±s.d. from three independent experiments (*P<0.001, **P<0.01 using ANOVA followed by Dunnett's test). (77,78)
Hela cells stably expressing Swedish FAD mutant APP (Hela-APPsw cells) were treated with small interfering RNA (siRNA) selective against various PLCβ(β1-4) and PLCγ (γ1, 2) isoforms.

[3] = system: Tg2576 mice; test: Aβ42/Aβ40 ratio in brains of Tg2576 mice; format: in vivo, mouse; conditions: Tg2576 transgenic mice
[4] = system: Aβ42; test: Aβ42 versus Aβ40 production in cell lines treated with ginsenosides; format: cell-based; conditions: cell lines and primary neurons
Description: as §1

[5] = system: hippocampal slices; test: Long-term potentiation (fEPSP slope) in hippocampal slices treated with Aβ42
Description: FIG. 5. […] The field excitatory post synaptic potential slope (FEPSP slope) in hippocampal slices that were untreated or treated with Aβ42 (Aβ) or Aβ42 and 20(S)Rg3 was monitored over time.
PIP2 modulation rescues Aβ oligomer-induced synaptic dysfunction.

[6] = system: Aβ42; test: Aβ42 biogenesis in HeLa cells overexpressing APPsw; format: cell-based; conditions: HeLa cells stably overexpressing Swedish variant of human APP
Description: (§2) FIG. 2A-E. Changes in PIP2 levels correlate with Aβ42 biogenesis. PIP2 levels (A) and Aβ42 biogenesis (D) in HeLa cells overexpressing human APPsw treated with either PLC inhibitor edelfosine (EDEL) or its active analog miltefosine (MILT). PIP2 levels (B) and Aβ42 biogenesis (E) in HeLa cells overexpressing human APPsw treated with PLC activator m-3m3FBS (M3M). (C) Modulation of PIP2 levels correlates with Aβ42 biogenesis. HeLa cells stably overexpressing the Swedish variant of human APP were treated with either control (DMSO), PLC inhibitor edelfosine (EDEL) or its active analog miltefosine (MILT). Steady-state PIP2 levels were determined by HPLC.

[7] = system: PIP2; test: Steady-state PIP2 levels determined by HPLC in HeLa cells overexpressing APPsw; format: cell-based; conditions: HeLa cells stably overexpressing Swedish variant of human APP
Description: as §2

[8] = system: β-secretase (sAPPβ); test: Secreted APP ectodomain generated by β-secretase (sAPPβ) in conditioned media of HeLa APPsw cells; format: cell-based, human; conditions: HeLa cells stably expressing APPsw
Experimental: (§3) FIG. 3A-F. PIP2 levels modulate Aβ biogenesis via two mechanisms. PIP2 levels modulate the release of soluble APP ectodomain into the medium. HeLa cells stably expressing APPsw were treated with either PLC inhibitors (EDEL, MILT) or PLC activator (M3M). Conditioned cell media were analyzed for secreted APP ectodomains generated by α-(sAPPα) (A) and β-secretase (sAPPβ) (B) cleavage. Aβ42 (D) and total Aβ biogenesis (C) in HEK293 cells transiently transfected with C99, C-terminal stub of APP that serves as a direct γ-secretase substrate, in the presence of PIP2 level modulator, EDEL. Aβ42 (F) and total Aβ biogenesis (E) in HEK293 cells transiently transfected with C99, C-terminal stub of APP that serves as a direct γ-secretase substrate, in the presence of PIP2 level modulator, M3M.
(§4) PIP2 levels modulate Aβ biogenesis via two distinct mechanisms. The metabolites of PIP2, including IP3 and DAG, have been implicated in APP processing pathways (69, 70, 71). Under normal conditions, PIP2 hydrolysis (to generate IP3 and DAG) favors the generation of α-secretase-generated secreted APP ectodomain (sAPPα). […] To more clearly define the role of PIP2 in modulating γ-secretase activity (e.g. Aβ42), we next expressed an APP-C99 construct, an ectopic γ-secretase substrate which resembles β-secretase-generated, membrane-associated APP stub in heterologous cells.

[9] = system: presenilin/γ-secretase (Aβ42); test: Aβ42 biogenesis in HEK293 cells transiently transfected with C99 (direct γ-secretase substrate); format: cell-based
Experimental: as §3, §4

[10] = system: α-secretase (sAPPα); test: Secreted APP ectodomain generated by α-secretase (sAPPα) in conditioned media of HeLa APPsw cells; format: cell-based, human; conditions: HeLa cells stably expressing APPsw
Experimental: as §3, §4

[11] = system: full-length APP (FL-APP); test: Steady-state full-length APP by Western blot in treated HeLa APPsw cells; format: cell-based, human; conditions: Western blot analysis
Experimental: Full length APP and total Aβ biogenesis are not affected in treated cells. Modulation of PIP2 levels correlates with Aβ42 biogenesis. HeLa cells stably overexpressing the Swedish variant of human APP were treated with either control (DMSO), PLC inhibitor edelfosine (EDEL) or its active analog miltefosine (MILT). Steady-state PIP2 levels were determined by HPLC.

Question: For `CC(C)=CCC[C@](C)(O)[C@H]1CC[C@]2(C)[C@@H]1[C@H](O)C[C@@H]1[C@@]3(C)CC[C@H](O[C@@H]4O[C@H](CO)[C@@H](O)[C@H](O)[C@H]4O[C@@H]4O[C@H](CO)[C@@H](O)[C@H](O)[C@H]4O)C(C)(C)[C@@H]3CC[C@]12C` [(20S)Rg3], which “Aβ42/Aβ40 ratio in cultured neurons” value ([1]; cultured neurons) is on record?
Answer: Its value is “decreased Aβ42/Aβ40 ratio”.

Question: What about the “Aβ42 in cultured hippocampal primary neurons” value [1] of the same molecule?
Answer: Its value is “decrease Aβ42”.

Question: What about the “Aβ42-lowering effect with PLCβ3 expression inhibited by siRNA” value ([2]; 15 μM Rg3 for 6 hr, PLCβ3 siRNA) of the same molecule?
Answer: Its value is “nearly abolished”.

Question: And the “Aβ42-lowering effect with PLCγ1 expression inhibited by siRNA” value ([2]; 15 μM Rg3 for 6 hr, PLCγ1 siRNA)?
Answer: The value was “nearly abolished”.

Question: And the “reduction of Aβ42 generation when PLCγ1 levels are suppressed (dose-response experiments)” value ([2]; PLCγ1 suppressed)?
Answer: The value was “far less effective”.

Question: And the “Aβ42/Aβ40 ratio in the brains” value [3]?
Answer: The value was “decreases the ratio of Aβ42 to Aβ40”.

Question: What about the “Aβ42/Aβ40 ratio in the brains” value ([3]; listed as Rg3) of the same molecule?
Answer: The value was “decreased Aβ42/Aβ40 ratio”.

Question: And the “Aβ37 and Aβ38” value [4]?
Answer: Its value is “concomitant increase”.

Question: And the “Aβ42 production relative to Aβ40” value [4]?
Answer: The value was “preferentially lower the production of Aβ42; also recorded: also selectively decreases Aβ42 relative to Aβ40”.

Question: What about the “long-term potentiation (fEPSP slope) in the presence of Aβ42” value (from here on “long-term potentiation (fEPSP slope)”) [5] of the same molecule?
Answer: The value was “blocks Abeta oligomer-induced inhibition of long-term potentitation”.

Question: What about the “long-term potentiation (fEPSP slope)” value ([5]; listed as 20(S)Rg3) of the same molecule?
Answer: Its value is “increases LTP expression relative to untreated hippocampal slices”.

Question: And the “long-term potentiation (fEPSP slope)” value ([5]; listed as SMT-3)?
Answer: Its value is “blocks Aβ42 oligomer-induced synaptic dysfunction”.

Question: For `C=C(CCC=C(C)C)[C@H]1CC[C@]2(C)[C@@H]1[C@H](O)C[C@@H]1[C@@]3(C)CC[C@H](O[C@@H]4O[C@H](CO)[C@@H](O)[C@H](O)[C@H]4O[C@@H]4O[C@H](CO)[C@@H](O)[C@H](O)[C@H]4O)C(C)(C)[C@@H]3CC[C@]12C` [Rk1], which “Aβ42 in cultured hippocampal primary neurons” value [1] is on record?
Answer: The value was “decrease Aβ42”.

Question: What about the “Aβ37 and Aβ38” value [4] of the same molecule?
Answer: Its value is “concomitant increase”.

Question: What about the “Aβ42 production relative to Aβ40” value [4] of the same molecule?
Answer: Its value is “preferentially lower the production of Aβ42; also recorded: selectively decreases Aβ42 relative to Aβ40”.

Question: With `CCCCCCCCCCCCCCCCCCOCC(COP(=O)([O-])OCC[N+](C)(C)C)OC` (stereo not shown) [edelfosine, Edelfosine] as the molecule, how does the “decrease in the levels of Aβ42” value ([6]; vs control (DMSO)) read?
Answer: The value was 37.3%.

Question: And the “increase in the steady-state levels of PIP2” value ([7]; vs control (DMSO))?
Answer: The value was roughly 10%.

Question: How did the “increase in Aβ42” value [6] turn out when `Cc1cc(C)c(S(=O)(=O)Nc2cccc(C(F)(F)F)c2)c(C)c1` [m-3m3FBS] was run?
Answer: The value was 37.2%.

Question: What about the sAPPβ secretion [8] of the same molecule?
Answer: Its sAPPβ secretion is “dramatic increase”.

Question: What about the “decrease in the steady state levels of PIP2” value [7] of the same molecule?
Answer: Its value is roughly 11%.

Question: What about the “effect on Aβ42 in C99-transfected cells” value [9] of the same molecule?
Answer: Its value is “Aβ42-promoting activity”.

Question: What about the sAPPα generation [10] of the same molecule?
Answer: Its sAPPα generation is “decreases in sAPPα”.

Question: And the “effect on steady-state levels of full-length APP (FL-APP)” value [11]?
Answer: Its value is “No significant effects”.

Question: `CCCCCCCCCCCCCCCCOP(=O)([O-])OCC[N+](C)(C)C` [miltefosine] was tested. Which sAPPβ secretion [8] did it give?
Answer: The sAPPβ secretion was “reduction in sAPPβ secretion”.

Question: And the sAPPα generation [10]?
Answer: Its sAPPα generation is “increases in sAPPα generation”.
